Laboratory results as given in patent US20140128747A1, “ASSESSING E[…] USING A BLOOD PRESSURE CUFF” (THE REGENTS OF THE UNIVERSITY OF CALIFORNIA, priority 2011, published 2014).
Entries after “also recorded” stand apart in the source; their conditions may differ.

Experiments:
human subjects = test: Blood pressure cuff measurement of pulse amplitude (arterial area) and compliance response to sublingual nitroglycerin; assay type: in vivo; conditions: 0.4 mg sublingual NG, FIG. 10, all cases where NG was administered
From the text: We contend that such studies are unnecessary in order to make a determination that a method is effective in assessing endothelial function. Physical methods for arterial EF evaluation typically measure changes in the material properties of the artery. […] A major advantage of this method is that response to NG is intact even in individuals with endothelial dysfunction, so there is no need to perform a correlation analysis between two measurements.
We examined three individuals in the age-range 28-38. All subjects had Framingham risk scores of 1% or less, and had no history of cardiovascular disease. Each individual was assessed at least three times before and after RH induced by five minutes of suprasystolic cuff occlusion. […] Sensitivity to a 0.4 mg dose of sublingual NG was assessed three times in two individuals.
Sensitivity to a 0.4 mg dose of sublingual NG was assessed three times in two individuals.
We studied a single quantity relating to the recorded pressure data: the pulse amplitude, which we posit is proportional to the arterial area. During the post stimulus interval, pressure data from the cuff were recorded approximately every 80 seconds, for a period of 30 seconds. During each recording interval, the cuff was inflated to 70 mmHg, which was always below the measured diastolic pressure of the subject. […]

NO synthase = test: Cuff single pulse waveform after endothelial stimulation with NO synthase blocked; assay type: in vivo, human; conditions: cuff inflated to 70 mmHg, FIG. 3
From the text: Both the amplitude and slope of the rising edge of the pulse increase markedly after endothelial stimulation.
In an artery with intact endothelial function, both pulse height (maximal cross-sectional arterial area) and compliance (maximum slope of the rising edge) increase markedly over baseline. […] FIG. 4 illustrates how a five minute cuff occlusion and the ensuring reactive hyperemia lead to major increases in area change per pulse and the maximum derivative of the area per pulse. Both metrics return to baseline levels after 20 minutes. FIG. 5 confirms the repeatability of the protocol by illustrating the effects of a series of two cuff occlusion periods. We see from FIG. 6 that only a small slow drift in the measured quantities occurs when no reactive hyperemic stimulus is applied.
A stimulus is then applied to the subject. Any of a number of stimuli expected to alter endothelial function are contemplated. Such stimuli include, for example, occlusion of blood flow, and/or application of one or more drugs to the subject. Illustrative drugs include, for example, drugs that act as NO agonists (e.g. acetylcholine), β2-adrenergic agonists such as albuterol, acoustic/mechanical tissue vibration, transcutaneous low frequency ultrasound (see, e.g., Iida et al. (2006) J. Amer. Coll. Cardiol., 48(3): 532-537), and the like. […]

For `O=[N+]([O-])OCC(CO[N+](=O)[O-])O[N+](=O)[O-]` [NG, nitroglycerin], the “increase in relative change in area” value (human subjects) was “more than 30%” and the “increase in relative change in compliance” value (human subjects) was “more than 30%”.

In the case of `COC(=O)[C@@H](N)CCCNC(=N)N[N+](=O)[O-]` [L-NAME], the “effect on increase of pulse amplitude (height) and slope of rising edge after endothelial stimulation” value (NO synthase) is reported as “greatly attenuates this response; also recorded: greatly attenuated”.
